From ChEMBL document CHEMBL1201862, “PubChem BioAssay data set” (2004)
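Each compound was tested at five concentrations against cells in 96-well plates for 48 hours. At the GI50, growth is halved.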 Active and inactive are the calls of the source. Rule as the data show it: active = GI50 up to about 1.1 µM and inactive = higher.

What was measured:
Experiment in all cases: DTP human tumour cell line panel, 48 h
[1] = test system: A498
[2] = test system: COLO 205
[3] = test system: EKVX
[4] = test system: HL-60
[5] = test system: LOX IMVI
[6] = test system: M19-MEL
[7] = test system: NCI-H23
[8] = test system: NCI-H460
[9] = test system: OVCAR-3
[10] = test system: SF-295
[11] = test system: SK-MEL-28
[12] = test system: SK-MEL-2
[13] = test system: SN12C
[14] = test system: SNB-19
[15] = test system: SR
[16] = test system: TK-10
[17] = test system: UACC-62
[18] = test system: BT-549
[19] = test system: Hs-578T

Q: Which results are given for `COc1cc(Nc2cnc3cc(N)ccc3n2)cc(OC)c1OC`?
A: GI50 [1]: > 100 µM (inactive); GI50 [2]: > 100 µM (inactive); GI50 [3]: 58.6 µM (inactive); GI50 [4]: 40.1 µM (inactive); GI50 [5]: 65.5 µM (inactive); GI50 [6]: 74.8 µM (inactive); GI50 [7]: > 100 µM (inactive); GI50 [8]: 34.1 µM (inactive); GI50 [9]: 53.8 µM (inactive); GI50 [10]: 72.4 µM (inactive); GI50 [11]: > 100 µM (inactive); GI50 [12]: > 100 µM (inactive); GI50 [13]: 94.6 µM (inactive); GI50 [14]: > 100 µM (inactive); GI50 [15]: 44.1 µM (inactive); GI50 [16]: > 100 µM (inactive); GI50 [17]: 64.4 µM (inactive)

Q: What does the source list for `NC1=C(C(=O)O)C(=O)C(Nc2c(O)cccc2C(=O)O)=CC1=O`?
A: GI50 [1]: > 100 µM (inactive); GI50 [2]: > 100 µM (inactive); GI50 [3]: > 100 µM (inactive); GI50 [4]: > 100 µM (inactive); GI50 [5]: > 100 µM (inactive); GI50 [6]: 18.7 µM (inactive); GI50 [7]: > 100 µM (inactive); GI50 [8]: 10 µM (inactive); GI50 [9]: > 100 µM (inactive); GI50 [10]: 43 µM (inactive); GI50 [11]: 0.942 µM (active); GI50 [12]: 59.3 µM (inactive); GI50 [13]: > 100 µM (inactive); GI50 [14]: > 100 µM (inactive); GI50 [15]: > 100 µM (inactive); GI50 [16]: > 100 µM (inactive); GI50 [17]: 60 µM (inactive)

Q: With `CCN1CCC(O)(c2ccc(C)cc2)C(C(=O)c2ccc(C)cc2)C1` (centres undefined) as the molecule, how does the GI50 [1] read?
A: Its GI50 is > 59.2 µM (inactive).

Q: And the GI50 [2]?
A: The GI50 was 23.6 µM (inactive).

Q: And the GI50 [3]?
A: The GI50 was 17.3 µM (inactive).

Q: And the GI50 [4]?
A: Its GI50 is 20.3 µM (inactive).

Q: What about the GI50 [5] of the same molecule?
A: Its GI50 is 26.2 µM (inactive).

Q: And the GI50 [6]?
A: The GI50 was > 47.3 µM (inactive).

Q: And the GI50 [7]?
A: The GI50 was > 40 µM (inactive).

Q: And the GI50 [8]?
A: The GI50 was > 52.6 µM (inactive).

Q: And the GI50 [9]?
A: The GI50 was 21.9 µM (inactive).

Q: What about the GI50 [10] of the same molecule?
A: Its GI50 is > 100 µM (inactive).

Q: What about the GI50 [11] of the same molecule?
A: The GI50 was 23.9 µM (inactive).

Q: And the GI50 [12]?
A: The GI50 was > 100 µM (inactive).

Q: What about the GI50 [13] of the same molecule?
A: The GI50 was 14.9 µM (inactive).

Q: What about the GI50 [14] of the same molecule?
A: The GI50 was > 80.7 µM (inactive).

Q: And the GI50 [15]?
A: Its GI50 is 23.9 µM (inactive).

Q: And the GI50 [16]?
A: Its GI50 is > 44.5 µM (inactive).

Q: And the GI50 [17]?
A: Its GI50 is > 42.6 µM (inactive).

Q: `CCc1ccc(NC(=O)NC(=O)c2ccccc2[N+](=O)[O-])cc1Oc1ncc(Cl)cn1` was tested. Which GI50 [1] did it give?
A: Its GI50 is < 0.01 µM (active).

Q: What about the GI50 [18] of the same molecule?
A: Its GI50 is 0.0815 µM (active).

Q: And the GI50 [2]?
A: Its GI50 is 0.0304 µM (active).

Q: What about the GI50 [3] of the same molecule?
A: Its GI50 is 7.06 µM (inactive).

Q: What about the GI50 [4] of the same molecule?
A: The GI50 was < 0.013 µM (active).

Q: And the GI50 [19]?
A: Its GI50 is < 0.01 µM (active).

Q: And the GI50 [5]?
A: Its GI50 is 0.0189 µM (active).

Q: What about the GI50 [6] of the same molecule?
A: Its GI50 is < 0.0275 µM (active).

Q: And the GI50 [7]?
A: The GI50 was < 0.0174 µM (active).

Q: What about the GI50 [8] of the same molecule?
A: Its GI50 is 0.0158 µM (active).

Q: And the GI50 [9]?
A: Its GI50 is 0.0147 µM (active).

Q: What about the GI50 [10] of the same molecule?
A: Its GI50 is < 0.0222 µM (active).

Q: What about the GI50 [11] of the same molecule?
A: The GI50 was 0.37 µM (active).

Q: And the GI50 [12]?
A: Its GI50 is < 0.01 µM (active).

Q: What about the GI50 [13] of the same molecule?
A: Its GI50 is 0.0308 µM (active).

Q: What about the GI50 [14] of the same molecule?
A: Its GI50 is 0.0495 µM (active).

Q: What about the GI50 [15] of the same molecule?
A: The GI50 was 0.0247 µM (active).

Q: What about the GI50 [16] of the same molecule?
A: The GI50 was 1.96 µM (inactive).

Q: And the GI50 [17]?
A: Its GI50 is < 0.0177 µM (active).

Q: What does the source list for `CCOC(=O)C(/N=N\c1ccc(S(N)(=O)=O)cc1)C(C)=O` (centres undefined)?
A: GI50 [1]: > 100 µM (inactive); GI50 [2]: > 100 µM (inactive); GI50 [3]: > 100 µM (inactive); GI50 [4]: > 100 µM (inactive); GI50 [5]: > 100 µM (inactive); GI50 [6]: > 100 µM (inactive); GI50 [7]: > 100 µM (inactive); GI50 [8]: > 100 µM (inactive); GI50 [9]: > 100 µM (inactive); GI50 [10]: > 100 µM (inactive); GI50 [11]: > 100 µM (inactive); GI50 [12]: > 100 µM (inactive); GI50 [13]: > 100 µM (inactive); GI50 [14]: > 100 µM (inactive); GI50 [15]: > 100 µM (inactive); GI50 [16]: > 100 µM (inactive); GI50 [17]: > 100 µM (inactive)

Q: Which results are given for `CC(=O)OC(C)(C)/C=C/C(=O)[C@](C)(O)[C@H]1[C@H](O)C[C@@]2(C)[C@@H]3CC=C4[C@@H](C[C@H](O)C(=O)C4(C)C)[C@]3(CO)C(=O)C[C@]12C` [CUCURBITACIN A]?
A: GI50 [1]: 0.231 µM (active); GI50 [2]: 0.318 µM (active); GI50 [3]: 0.364 µM (active); GI50 [4]: 0.335 µM (active); GI50 [5]: 0.207 µM (active); GI50 [6]: 0.451 µM (active); GI50 [7]: 0.536 µM (active); GI50 [8]: 0.184 µM (active); GI50 [9]: 0.446 µM (active); GI50 [10]: 0.314 µM (active); GI50 [11]: 0.132 µM (active); GI50 [12]: 0.1 µM (active); GI50 [13]: 0.448 µM (active); GI50 [14]: 0.249 µM (active); GI50 [15]: 0.65 µM (active); GI50 [16]: 0.179 µM (active); GI50 [17]: 0.543 µM (active)
